Reference: patent US10925283B2, “Microbiocidal phenylamidine derivatives” (SYNGENTA PARTICIPATIONS AG, priority 2016, dated 2021)
Blank lines part the entries; values can stand above or below the compound they belong to.

Tests used:
[1] = system: Puccinia recondita f. sp. tritici; experiment: Puccinia recondita f. sp. tritici / wheat / leaf disc preventative (brown rust); format: in vivo; settings: foliar, wheat leaf segments cv. Kanzler, inoculated 1 day after application, assessed 7-9 days after application, read-out: control of Puccinia recondita f. sp. tritici (percent disease control compared to untreated)
Outline: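 Leaf segments of wheat cv. Kanzler on agar were sprayed with diluted formulated compound and inoculated with spores 1 day later. Kept at 19° C, 75% rh, 12 h light/12 h dark. Percent disease control versus untreated assessed 7-9 days after application.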

[2] = system: Blumeria graminis f. sp. tritici (Erysiphe graminis f. sp. tritici); experiment: Blumeria graminis f. sp. tritici / wheat / leaf disc preventative (powdery mildew on wheat); format: in vivo; settings: foliar, wheat leaf segments cv. Kanzler, inoculated 1 day after application, assessed 6-8 days after application, read-out: control of Blumeria graminis f. sp. tritici (percent disease control compared to untreated)
Outline: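 Wheat cv. Kanzler leaf segments on agar were sprayed with formulated compound in water, then inoculated with powdery mildew 1 day after application. Incubation was at 20° C, 60% rh, 24 h dark then 12 h light/12 h dark. Percent disease control versus untreated was scored 6-8 days after application.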

[3] = system: Puccinia recondita f. sp. tritici; experiment: Puccinia recondita f. sp. tritici / wheat / leaf disc curative (brown rust); format: in vivo; settings: foliar, wheat leaf segments cv. Kanzler, compound applied 1 day after inoculation, assessed 6-8 days after application, read-out: control of Puccinia recondita f. sp. tritici (percent disease control compared to untreated)
Outline: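 Curative test: leaf segments of wheat cv. Kanzler on agar were inoculated with spores and held dark at 19 °C, 75% rh; formulated compound in water was applied 1 day after inoculation. Segments were then kept at 19 °C, 75% rh under 12 h light/12 h dark, and percent disease control versus untreated was scored 6-8 days after application.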

Phakopsora pachyrhizi = Phakopsora pachyrhizi / soybean / preventative (soybean rust); format: in vivo; settings: foliar, soybean leaf disks, inoculated one day after application, assessed 12-14 days after application, read-out: control of Phakopsora pachyrhizi (percent disease control compared to untreated)

Structure (SMILES): CCN(C)/C=N/c1cc(OC)c(C(O)(CS(=O)(=O)c2ccccc2)C(F)(F)F)cc1C (centres unmarked) [E.065, N′-[4-[1-(benzenesulfonylmethyl)-2,2,2-trifluoro-1-hydroxy-ethyl]-5-methoxy-2-methyl-phenyl]-N-ethyl-N-methyl-formamidine]
- pest or weed control at 200 ppm [1]: ≥ 80%
- pest or weed control at 200 ppm [2]: ≥ 80%
- pest or weed control at 200 ppm [3]: ≥ 80%
- melting point: 103 to 105 °C

Structure (SMILES): CCSCC(O)(c1cc(C)c(/N=C/N(C)CC)cc1OC)C(F)(F)F (centres unmarked) [E.073, N-ethyl-N′-[4-[1-(ethylsulfanylmethyl)-2,2,2-trifluoro-1-hydroxy-ethyl]-5-methoxy-2-methyl-phenyl]-N-methyl-formamidine]
- pest or weed control at 200 ppm [1]: ≥ 80%
- pest or weed control at 200 ppm [2]: ≥ 80%
- melting point: 81 to 83 °C

Structure (SMILES): CCN(C)/C=N/c1cc(OC)c(C(O)(COC2CC(C)CC(C)C2)C(F)(F)F)cc1C (centres unmarked) [E.006, N′-[4-[1-[(3,5-dimethylcyclohexoxy)methyl]-2,2,2-trifluoro-1-hydroxy-ethyl]-5-methoxy-2-methyl-phenyl]-N-ethyl-N-methyl-formamidine]
- pest or weed control at 200 ppm [1]: ≥ 80%
- pest or weed control at 200 ppm [2]: ≥ 80%
- pest or weed control at 200 ppm [3]: ≥ 80%
- pest or weed control at 200 ppm (Phakopsora pachyrhizi): ≥ 80%

Structure (SMILES): CCN(C)/C=N/c1cc(OC)c(C(O)(CCOc2ccc(F)cc2)C(F)(F)F)cc1C (centres unmarked) [E.053, N-ethyl-N′-[4-[3-(4-fluorophenoxy)-1-hydroxy-1-(trifluoromethyl)propyl]-5-methoxy-2-methyl-phenyl]-N-methyl-formamidine]
- pest or weed control at 200 ppm [1]: ≥ 80%
- pest or weed control at 200 ppm [2]: ≥ 80%
- pest or weed control at 200 ppm [3]: ≥ 80%
- pest or weed control at 200 ppm (Phakopsora pachyrhizi): ≥ 80%

Structure (SMILES): CCN(C)/C=N/c1cc(OC)c(C(O)(COC2CCCCC2)C(F)(F)F)cc1C (centres unmarked) [E.039, N′-[4-[1-(cyclohexoxymethyl)-2,2,2-trifluoro-1-hydroxy-ethyl]-5-methoxy-2-methyl-phenyl]-N-ethyl-N-methyl-formamidine]
- pest or weed control at 200 ppm [1]: ≥ 80%
- pest or weed control at 200 ppm [2]: ≥ 80%
- pest or weed control at 200 ppm [3]: ≥ 80%
- pest or weed control at 200 ppm (Phakopsora pachyrhizi): ≥ 80%

Structure (SMILES): CCN(C)/C=N/c1cc(OC)c(C(O)(COCC2CCC2)C(F)(F)F)cc1C (centres unmarked) [E.011, N′-[4-[1-(cyclobutylmethoxymethyl)-2,2,2-trifluoro-1-hydroxy-ethyl]-5-methoxy-2-methyl-phenyl]-N-ethyl-N-methyl-formamidine]
- pest or weed control at 200 ppm [1]: ≥ 80%
- pest or weed control at 200 ppm [2]: ≥ 80%
- pest or weed control at 200 ppm [3]: ≥ 80%
- pest or weed control at 200 ppm (Phakopsora pachyrhizi): ≥ 80%

Structure (SMILES): CCN(C)/C=N/c1cc(OC)c(C(O)(CSCc2ccccc2)C(F)(F)F)cc1C (centres unmarked) [E.069, N′-[4-[1-(benzylsulfanylmethyl)-2,2,2-trifluoro-1-hydroxy-ethyl]-5-methoxy-2-methyl-phenyl]-N-ethyl-N-methyl-formamidine]
- pest or weed control at 200 ppm [1]: ≥ 80%
- pest or weed control at 200 ppm [2]: ≥ 80%
- pest or weed control at 200 ppm [3]: ≥ 80%
- pest or weed control at 200 ppm (Phakopsora pachyrhizi): ≥ 80%

Structure (SMILES): CCN(C)/C=N/c1cc(OC)c(C(O)(C2CCC(OC)CC2)C(F)(F)F)cc1C (centres unmarked) [E.075, N-ethyl-N′-[5-methoxy-2-methyl-4-[2,2,2-trifluoro-1-hydroxy-1-(4-methoxycyclohexyl)ethyl]phenyl]-N-methyl-formamidine]
- pest or weed control at 200 ppm [1]: ≥ 80%
- pest or weed control at 200 ppm [2]: ≥ 80%
- pest or weed control at 200 ppm [3]: ≥ 80%
- pest or weed control at 200 ppm (Phakopsora pachyrhizi): ≥ 80%

More lines, main results first:

- melting point: 115 to 116.6 °C
Structure (SMILES): CCN(C)/C=N/c1cc(OC)c(C(O)(C2=COCCC2)C(F)(F)F)cc1C (centres unmarked) [E.074, N′-[4-[1-(3,4-dihydro-2H-pyran-5-yl)-2,2,2-trifluoro-1-hydroxy-ethyl]-5-methoxy-2-methyl-phenyl]-N-ethyl-N-methyl-formamidine]
- pest or weed control at 200 ppm [1]: ≥ 80%
- pest or weed control at 200 ppm [2]: ≥ 80%
- pest or weed control at 200 ppm [3]: ≥ 80%

- melting point: 105 to 107 °C
Structure (SMILES): CCN(C)C=Nc1cc(OC)c(C(O)(C/C(=N/OC)c2ccccc2)C(F)(F)F)cc1C (centres unmarked) [E.059, N-ethyl-N′-[4-[(3Z)-1-hydroxy-3-methoxyimino-3-phenyl-1-(trifluoromethyl)propyl]-5-methoxy-2-methyl-phenyl]-N-methyl-formamidine]
- pest or weed control at 200 ppm [1]: ≥ 80%
- pest or weed control at 200 ppm [2]: ≥ 80%
- pest or weed control at 200 ppm [3]: ≥ 80%
- pest or weed control at 200 ppm (Phakopsora pachyrhizi): ≥ 80%

- melting point: 86 to 88 °C
Structure (SMILES): CCN(C)/C=N/c1cc(OC)c(C(O)(CC#N)C(F)(F)F)cc1C (centres unmarked) [E.061, N′-[4-[1-(cyanomethyl)-2,2,2-trifluoro-1-hydroxy-ethyl]-5-methoxy-2-methyl-phenyl]-N-ethyl-N-methyl-formamidine]
- pest or weed control at 200 ppm [1]: ≥ 80%
- pest or weed control at 200 ppm [2]: ≥ 80%
- pest or weed control at 200 ppm [3]: ≥ 80%

- melting point: 90 to 93 °C
Structure (SMILES): CCN(C)/C=N/c1cc(OC)c(C(O)(C(F)(F)F)C(C)(C)C#N)cc1C (centres unmarked) [E.060, N′-[4-[2-cyano-1-hydroxy-2-methyl-1-(trifluoromethyl)propyl]-5-methoxy-2-methyl-phenyl]-N-ethyl-N-methyl-formamidine]
- pest or weed control at 200 ppm [1]: ≥ 80%
- pest or weed control at 200 ppm [2]: ≥ 80%
- pest or weed control at 200 ppm [3]: ≥ 80%
- pest or weed control at 200 ppm (Phakopsora pachyrhizi): ≥ 80%

- melting point: 56 to 58 °C
Structure (SMILES): CCN(C)/C=N/c1cc(OC)c(C(O)(CS(=O)(=O)Cc2ccccc2)C(F)(F)F)cc1C (centres unmarked) [E.064, N′-[4-[1-(benzylsulfonylmethyl)-2,2,2-trifluoro-1-hydroxy-ethyl]-5-methoxy-2-methyl-phenyl]-N-ethyl-N-methyl-formamidine]
- pest or weed control at 200 ppm [1]: ≥ 80%
- pest or weed control at 200 ppm [2]: ≥ 80%
- pest or weed control at 200 ppm [3]: ≥ 80%
